Source: US11470828B2, “Rodent model of mood disorders” (REGENERON PHARMACEUTICALS, INC., priority 2019, dated 2022)
Several values for one entry are separate records, joined by “and”; a condition that tells them apart may be missing. Identical values can stand only once. Like-named read-outs stand apart in the source and are kept apart here.

Tested on: GPR156^E533D/E533D mice
Conditions: for Effect on impaired swim phenotype (ability to perform 6-minute swim test): GPR156^E533D/E533D mice, Fluoxetine 10 mg/kg i.p. daily for 9 weeks
Protocol: Mice were placed in a 5 liter clear plastic beaker (25×18 cm diameter) filled with 4 liters of 23-25° C. tap water to ensure mice cannot touch the bottom of the flask even with their tail. Four animals were recorded simultaneously using an ANY-maze™ video-tracking system (Stoelting Co.). Data were recorded for 6 minutes. Flask were separated by 3 sided white plastic partitions (40 cm high×25 cm wide). Swim test was recorded for 6 minutes. Recordings were set up to start automatically if there was motion in the flask so that recorded times are specific for each individual mouse.
The 6 minutes recording was broken into three time segments (0-100 seconds, 101-200 second and last […]) to get a better sampling of behaviors across time.
Main data points analyzed for the FST were swim time, time mobile, time immobile, speed, distance traveled, rearing in the swim zone, mobile episodes and immobile episodes. Immobility is defined as 60% of total body mass being immobile for 2 seconds. This parameter allows for small movements of hind legs and feet to maintain balance and or to tread water without be considered actively swimming.
Mice were tested for a 6 minute forced swim test weekly before and after daily treatment with intraperitoneal injection of Fluoxetine 10 mg/kg for […]. Total time of swim test seconds) before and after daily treatment with Fluoxetine was recorded. […] Data were expressed as mean±SEM for each animal group.
To test whether Fluoxetine could reverse the impaired swim test phenotype, GPR156^hum/hum and GPR156^E533D/E533D mice were treated with Fluoxetine 10 mg/kg (i.p) daily for 6 days/week for 9 weeks. […] Therefore, mice were subjected to a swim test (baseline) and animals able to perform the 6 minutes swim test were excluded from the study. The remaining mice were then split into 2 groups, treated and untreated with Fluoxetine.
For this study, mice were subjected to a swim test (baseline) and animals able to perform the 6 minutes swim test were excluded from the study.

CNCCC(Oc1ccc(C(F)(F)F)cc1)c1ccccc1 (stereo not drawn) [Fluoxetine]
Percentage of mice achieving the swim test (GPR156^E533D/E533D mice (0/13 at baseline), Fluoxetine 10 mg/kg i.p. daily 6 days/week, after 9 weeks, males and females combined): 53% and 61% | Effect on impaired swim phenotype (ability to perform 6-minute swim test): improves the impaired swim phenotype | Effect on impaired swim phenotype (ability to perform 6-minute swim test) (listed as fluoxetine): improved on their ability to perform the swim test | Percentage of females able to successfully perform the 6 minutes swim test (female mice homozygous for E533D, Fluoxetine 10 mg/kg i.p. daily, after 4 weeks (5 out of 10)): 50% | Percentage of GPR156^E533D/E533D mice that achieved the test (following 4-9 weeks of treatment with Fluoxetine 10 mg/kg, i.p., daily, none able prior to treatment): Fluoxetine (10 mg/kg, i.p., daily), 53% | Percentage of males able to successfully perform the 6 minutes swim test (male mice homozygous for E533D, Fluoxetine 10 mg/kg i.p. daily, after 4 weeks (5 out of 8)): 62.5%
